These are literature values, as cited in patent publication US12263217B2, “Nucleic acid stabilizing solution for vaccines, therapy, diagnostics, storage, and transport” (Daykin Molecular Systems, LLC, priority 2020, dated 2025).

Turning to tris(hydroxymethyl)aminomethane, the doses well tolerated (in vivo) is listed as 3.6 grams/50 kg body weight. Besides, the doses clinically used (parenteral) is on record as “up to 500 mg/kg weight”.
